Source: patent US20210221866A1, “PROTEASE-RESISTANT LIPIDATED GLP-1 ANALOGS” (MEDIMMUNE LIMITED, priority 2015, published 2021)
Where two headings read alike, the source gives them in different places. Numbered stars: 1 amine (or outer) side, 2 acyl side, 3 side chain; on linkers, the order of the positions; unused ones are H or OH. Square brackets hold non-standard residues; d marks the D form. Side chains are listed from the residue outwards. Peptide text beside a SMILES is read from it. * marks the point of attachment. C18 diacid = O=C(O)CCCCCCCCCCCCCCCCC(=O)*; γGlu = O=C(O)[C@H](CCC(=O)[*:2])N[*:1]; αMeF = C[C@](N)(Cc1ccccc1)C(=O)O; αMeK = C[C@](N)(CCCCN)C(=O)O; αMeS = C[C@](N)(CO)C(=O)O; AEEA = NCCOCCOCC(=O)O; Aib = CC(C)(N)C(=O)O

Tests used:
Format in all cases: cell-based
GLP-1R (INS1e cells) = biological target: T1, GLP-1R (INS1e cells) (Rattus norvegicus, UniProt P32301); test: INS1e assay, cAMP activity at GLP-1R; settings: Table 8, substituted and mono-lipidated peptides
T1 construct: endogenous in cells; host or cells: INS1e cells
T1 sequence (P32301 22-463): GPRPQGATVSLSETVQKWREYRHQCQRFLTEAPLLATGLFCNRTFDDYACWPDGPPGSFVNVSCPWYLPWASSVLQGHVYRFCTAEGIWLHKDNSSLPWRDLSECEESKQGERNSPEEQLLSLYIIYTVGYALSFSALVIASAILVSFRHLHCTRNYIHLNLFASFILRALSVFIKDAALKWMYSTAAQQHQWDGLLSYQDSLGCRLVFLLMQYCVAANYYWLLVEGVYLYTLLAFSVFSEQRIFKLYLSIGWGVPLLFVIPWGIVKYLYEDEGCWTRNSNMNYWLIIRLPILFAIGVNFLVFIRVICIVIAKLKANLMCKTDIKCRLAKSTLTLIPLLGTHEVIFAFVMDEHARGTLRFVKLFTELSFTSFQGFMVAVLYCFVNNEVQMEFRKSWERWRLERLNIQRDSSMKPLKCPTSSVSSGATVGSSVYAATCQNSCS

[1] = biological target: T2, human GLP-1 receptor (GLP-1R) (Homo sapiens, UniProt P43220); test: cAMP assay, human GLP-1R cells; settings: cAMP activity
T2 construct: expressed in transfected cells; host or cells: HEK293 cells or CHO cells
In short: (§1)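 Peptide-stimulated cAMP measured by two-step HTRF after a 30 min room-temperature incubation with receptor-expressing cells (hGLP-1R, hGIPR at 1×10^5 cells/ml; hGCGR at 2×10^5 cells/ml). Duplicate dilutions; EC50 from 4-parameter logistic fit of % Delta F.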

[2] = biological target: T3, human glucose-dependent insulinotropic peptide receptor (GIPR) (Homo sapiens, UniProt P48546); test: cAMP assay, human GIPR cells; settings: cAMP activity, read-out: Primary assay EC50 GIP-R
T3 construct: expressed in transfected cells; host or cells: HEK293 cells or CHO cells
T3 sequence (P48546 22-466): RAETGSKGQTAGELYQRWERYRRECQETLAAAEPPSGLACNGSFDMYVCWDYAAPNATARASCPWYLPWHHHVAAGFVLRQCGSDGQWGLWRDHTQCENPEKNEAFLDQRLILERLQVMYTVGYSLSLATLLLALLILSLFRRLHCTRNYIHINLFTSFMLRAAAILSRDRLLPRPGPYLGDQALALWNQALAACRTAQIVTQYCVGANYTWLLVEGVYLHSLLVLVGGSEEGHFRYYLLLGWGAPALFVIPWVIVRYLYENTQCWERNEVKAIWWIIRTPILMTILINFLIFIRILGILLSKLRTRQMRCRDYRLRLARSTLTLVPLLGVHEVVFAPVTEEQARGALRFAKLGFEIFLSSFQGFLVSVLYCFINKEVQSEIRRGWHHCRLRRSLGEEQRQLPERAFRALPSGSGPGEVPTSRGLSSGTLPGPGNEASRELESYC
In short: as §1

[3] = biological target: T4, human glucagon receptor (GCGR) (Homo sapiens, UniProt P47871); test: cAMP assay, human GCGR cells; settings: cAMP activity; second determination (n2); read-out: Primary assay EC50 Gluc-R
T4 construct: expressed in transfected cells; host or cells: HEK293 cells or CHO cells
In short: as §1

[4] = mean of n1 and n2, read-out: INS1e assay EC50 Mean pM GLP-1R
[5] = replicate n1, read-out: INS1e assay EC50 GLP-1R n1
[6] = replicate n2, read-out: INS1e assay EC50 GLP-1R n2
[7] = first determination (n1), read-out: Primary assay EC50 GLP-1R n1
[8] = mean of n1 and n2, read-out: Mean pM GLP-1R
[9] = second determination (n2), read-out: Primary assay EC50 GLP-1R n2

T2 sequence (P43220 24-463): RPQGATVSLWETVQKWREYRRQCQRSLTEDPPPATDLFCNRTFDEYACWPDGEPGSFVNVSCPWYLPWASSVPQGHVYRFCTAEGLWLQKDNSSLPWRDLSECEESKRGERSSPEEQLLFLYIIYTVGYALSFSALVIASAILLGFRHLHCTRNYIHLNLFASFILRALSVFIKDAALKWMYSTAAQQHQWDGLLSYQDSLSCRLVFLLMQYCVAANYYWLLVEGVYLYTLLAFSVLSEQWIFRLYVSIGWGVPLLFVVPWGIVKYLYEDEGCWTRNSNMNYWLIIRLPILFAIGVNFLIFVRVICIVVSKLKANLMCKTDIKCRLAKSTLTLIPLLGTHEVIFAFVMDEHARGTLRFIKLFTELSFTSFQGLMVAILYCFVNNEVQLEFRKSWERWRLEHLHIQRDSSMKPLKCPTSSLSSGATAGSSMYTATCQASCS
T4 sequence (P47871 26-477): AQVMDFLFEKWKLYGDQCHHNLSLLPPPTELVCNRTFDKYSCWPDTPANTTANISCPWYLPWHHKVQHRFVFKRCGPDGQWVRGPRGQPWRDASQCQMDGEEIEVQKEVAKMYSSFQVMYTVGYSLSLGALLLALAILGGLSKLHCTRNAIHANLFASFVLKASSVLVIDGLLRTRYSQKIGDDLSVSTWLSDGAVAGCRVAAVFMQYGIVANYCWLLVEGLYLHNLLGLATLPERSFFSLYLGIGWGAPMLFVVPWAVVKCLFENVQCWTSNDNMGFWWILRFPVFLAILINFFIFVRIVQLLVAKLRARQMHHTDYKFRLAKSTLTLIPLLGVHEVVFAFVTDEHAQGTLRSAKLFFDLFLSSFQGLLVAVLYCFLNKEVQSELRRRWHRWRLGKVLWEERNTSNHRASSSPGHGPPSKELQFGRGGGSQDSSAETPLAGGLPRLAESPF

Compound | EC50 (GLP-1R (INS1e cells); [4]) | EC50 (GLP-1R (INS1e cells); [5]) | EC50 (GLP-1R (INS1e cells); [6]) | EC50 [1, 7] | EC50 [1, 8] | EC50 [1, 9] | EC50 ([2]; first determination (n1)) | EC50 ([2]; second determination (n2)) | EC50 [3]
CC[C@H](C)[C@H](NC(=O)[C@](C)(Cc1ccccc1)NC(=O)[C@H](CCC(=O)O)NC(=O)[C@](C)(CCCCN)NC(=O)[C@H](C)NC(=O)[C@H](C)NC(=O)[C@H](CCC(=O)O)NC(=O)CNC(=O)[C@H](CCC(=O)O)NC(=O)[C@H](CC(C)C)NC(=O)[C@](C)(Cc1ccccc1)NC(=O)[C@H](CO)NC(=O)[C@](C)(CO)NC(=O)[C@@H](NC(=O)[C@H](CC(=O)O)NC(=O)[C@H](CO)NC(=O)[C@@H](NC(=O)[C@](C)(Cc1ccccc1)NC(=O)[C@H](CO)NC(=O)CNC(=O)[C@H](CCC(=O)O)NC(=O)C(C)(C)NC(=O)[C@@H](N)Cc1c[nH]cn1)[C@@H](C)O)C(C)C)C(=O)N[C@@H](C)C(=O)N[C@@](C)(Cc1ccccc1)C(=O)N[C@@H](CCCCNC(=O)COCCOCCNC(=O)COCCOCCNC(=O)CC[C@H](NC(=O)CCCCCCCCCCCCCCCCC(=O)O)C(=O)O)C(=O)N[C@H](C(=O)N[C@@](C)(CCCCN)C(=O)NCC(=O)NCC(N)=O)C(C)C [compound 103] (H-H[Aib]EGS[αMeF]TSDV[αMeS]S[αMeF]LEGEAA[αMeK]E[αMeF]IA[αMeF]K([AEEA-AEEA-γGlu-C18 diacid])V[αMeK]GG-NH2) | 509 pM | 428 pM | 590 pM | 4.7 pM | 5 pM | 4.56 pM | ≥ 25 nM | ≥ 25.2 nM | ≥ 25.2 nM
CC[C@H](C)[C@H](NC(=O)[C@](C)(Cc1ccccc1)NC(=O)[C@H](CCC(=O)O)NC(=O)[C@H](CCCCNC(=O)COCCOCCNC(=O)COCCOCCNC(=O)CC[C@H](NC(=O)CCCCCCCCCCCCCCCCC(=O)O)C(=O)O)NC(=O)[C@H](C)NC(=O)[C@H](C)NC(=O)[C@H](CCC(=O)O)NC(=O)CNC(=O)[C@H](CCC(=O)O)NC(=O)[C@H](CC(C)C)NC(=O)[C@](C)(Cc1ccccc1)NC(=O)[C@H](CO)NC(=O)[C@](C)(CO)NC(=O)[C@@H](NC(=O)[C@H](CC(=O)O)NC(=O)[C@H](CO)NC(=O)[C@@H](NC(=O)[C@](C)(Cc1ccccc1)NC(=O)[C@H](CO)NC(=O)CNC(=O)[C@H](CCC(=O)O)NC(=O)C(C)(C)NC(=O)[C@@H](N)Cc1c[nH]cn1)[C@@H](C)O)C(C)C)C(=O)N[C@@H](C)C(=O)N[C@@H](Cc1c[nH]c2ccccc12)C(=O)N[C@H](C(=O)N[C@H](C(=O)N[C@@](C)(CCCCN)C(=O)NCC(=O)NCC(N)=O)C(C)C)C(C)C [compound 49] (H-H[Aib]EGS[αMeF]TSDV[αMeS]S[αMeF]LEGEAAK([AEEA-AEEA-γGlu-C18 diacid])E[αMeF]IAWVV[αMeK]GG-NH2; N-terminus assumed) | 10000 pM | 9350 pM | 10700 pM | 96 pM | 124 pM | 150 pM | ≥ 25 nM | ≥ 25 nM | ≥ 25 nM
CC[C@H](C)[C@H](NC(=O)[C@](C)(Cc1ccccc1)NC(=O)[C@H](CCC(=O)O)NC(=O)[C@H](CCCCNC(=O)COCCOCCNC(=O)COCCOCCNC(=O)CC[C@H](NC(=O)CCCCCCCCCCCCCCCCC(=O)O)C(=O)O)NC(=O)[C@H](C)NC(=O)[C@H](C)NC(=O)[C@H](CCC(=O)O)NC(=O)CNC(=O)[C@H](CCC(=O)O)NC(=O)[C@H](CC(C)C)NC(=O)[C@](C)(Cc1ccccc1)NC(=O)[C@H](CO)NC(=O)[C@H](CO)NC(=O)[C@@H](NC(=O)[C@H](CC(=O)O)NC(=O)[C@H](CO)NC(=O)[C@@H](NC(=O)[C@](C)(Cc1ccccc1)NC(=O)[C@H](CO)NC(=O)CNC(=O)[C@H](CCC(=O)O)NC(=O)C(C)(C)NC(=O)[C@@H](N)Cc1c[nH]cn1)[C@@H](C)O)C(C)C)C(=O)N[C@@H](C)C(=O)N[C@@](C)(Cc1ccccc1)C(=O)N[C@H](C(=O)N[C@H](C(=O)N[C@@](C)(CCCCN)C(=O)NCC(=O)NCC(N)=O)C(C)C)C(C)C [compound 46] | 68000 pM | 52600 pM | 83400 pM | 920 pM | 1560 pM | 2200 pM | ≥ 26 nM | ≥ 26 nM | ≥ 26 nM

The next lines start with the values.

EC50 (GLP-1R (INS1e cells); [4]) | EC50 (GLP-1R (INS1e cells); [5]) | EC50 (GLP-1R (INS1e cells); [6]) | EC50 [1, 7] | EC50 [1, 8] | EC50 [1, 9] | EC50 ([2]; first determination (n1)) | EC50 ([2]; second determination (n2)) | EC50 [3] | Compound
8440 pM | 11000 pM | 5880 pM | 58 pM | 54 pM | 49.3 pM | ≥ 25 nM | ≥ 24.9 nM | ≥ 24.9 nM | CC[C@H](C)[C@H](NC(=O)[C@](C)(Cc1ccccc1)NC(=O)[C@H](CCC(=O)O)NC(=O)[C@](C)(CCCCN)NC(=O)[C@H](C)NC(=O)[C@H](C)NC(=O)[C@H](CCC(=O)O)NC(=O)CNC(=O)[C@H](CCC(=O)O)NC(=O)[C@H](CC(C)C)NC(=O)[C@](C)(Cc1ccccc1)NC(=O)[C@H](CO)NC(=O)[C@](C)(CO)NC(=O)[C@@H](NC(=O)[C@H](CC(=O)O)NC(=O)[C@H](CO)NC(=O)[C@@H](NC(=O)[C@](C)(Cc1ccccc1)NC(=O)[C@H](CO)NC(=O)CNC(=O)[C@H](CCC(=O)O)NC(=O)C(C)(C)NC(=O)[C@@H](N)Cc1c[nH]cn1)[C@@H](C)O)C(C)C)C(=O)N[C@@H](C)C(=O)N[C@@](C)(Cc1ccccc1)C(=O)N[C@H](C(=O)N[C@H](C(=O)N[C@@](C)(CCCCN)C(=O)NCC(=O)N[C@@H](CCCCNC(=O)COCCOCCNC(=O)COCCOCCNC(=O)CC[C@H](NC(=O)CCCCCCCCCCCCCCCCC(=O)O)C(=O)O)C(N)=O)C(C)C)C(C)C [compound 99] (H-H[Aib]EGS[αMeF]TSDV[αMeS]S[αMeF]LEGEAA[αMeK]E[αMeF]IA[αMeF]VV[αMeK]GK([AEEA-AEEA-γGlu-C18 diacid])-NH2; N-terminus assumed)
970 pM | 220 pM | 1720 pM | 21 pM | 18 pM | 14.8 pM | ≥ 25 nM | ≥ 25 nM | ≥ 25 nM | CC[C@H](C)[C@H](NC(=O)[C@](C)(Cc1ccccc1)NC(=O)[C@H](CCC(=O)O)NC(=O)[C@](C)(CCCCN)NC(=O)[C@H](C)NC(=O)[C@H](C)NC(=O)[C@H](CCC(=O)O)NC(=O)CNC(=O)[C@H](CCC(=O)O)NC(=O)[C@H](CC(C)C)NC(=O)[C@](C)(Cc1ccccc1)NC(=O)[C@H](CO)NC(=O)[C@](C)(CO)NC(=O)[C@@H](NC(=O)[C@H](CC(=O)O)NC(=O)[C@H](CO)NC(=O)[C@@H](NC(=O)[C@](C)(Cc1ccccc1)NC(=O)[C@H](CO)NC(=O)CNC(=O)[C@H](CCC(=O)O)NC(=O)C(C)(C)NC(=O)[C@@H](N)Cc1c[nH]cn1)[C@@H](C)O)C(C)C)C(=O)N[C@@H](CCCCNC(=O)COCCOCCNC(=O)COCCOCCNC(=O)CC[C@H](NC(=O)CCCCCCCCCCCCCCCCC(=O)O)C(=O)O)C(=O)N[C@@](C)(Cc1ccccc1)C(=O)N[C@H](C(=O)N[C@H](C(=O)N[C@@](C)(CCCCN)C(=O)NCC(=O)NCC(N)=O)C(C)C)C(C)C [compound 105] (H-H[Aib]EGS[αMeF]TSDV[αMeS]S[αMeF]LEGEAA[αMeK]E[αMeF]IK([AEEA-AEEA-γGlu-C18 diacid])[αMeF]VV[αMeK]GG-NH2; N-terminus assumed)
